Test results: patent publication US20240132431A1, “METHOD FOR ALKYLATING ACIDIC FUNCTIONAL GROUP” (Chugai Seiyaku Kabushiki Kaisha, priority 2021, published 2024)

Target: T1, Bcl-2 protein (Recombinant Human Bcl-2 Protein) (Homo sapiens, UniProt P10415)
T1 construct: purchased Novus NBP2-34889
Experiment: Binding evaluation of mixture library compounds to Bcl-2 using AS-MS (affinity selection mass spectrometry)
Conditions: AS-MS on the mixture of 1200 library compounds, ASMS Ratio(%)=(A−C)/B×100; for ASMS ratio (%) n = 1: replicate n = 1; for ASMS ratio (%) n = 2: replicate n = 2
Method in brief: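 ASMS Ratio (%) was calculated as (A−C)/B×100, where A is the protein sample after SEC, B the protein-free sample without SEC and C the protein-free sample after SEC. Each compound was at […] in a 1200-member pool with 20 μM Bcl-2, incubated 1 h at 23° C.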

T1 sequence (P10415 whole entry): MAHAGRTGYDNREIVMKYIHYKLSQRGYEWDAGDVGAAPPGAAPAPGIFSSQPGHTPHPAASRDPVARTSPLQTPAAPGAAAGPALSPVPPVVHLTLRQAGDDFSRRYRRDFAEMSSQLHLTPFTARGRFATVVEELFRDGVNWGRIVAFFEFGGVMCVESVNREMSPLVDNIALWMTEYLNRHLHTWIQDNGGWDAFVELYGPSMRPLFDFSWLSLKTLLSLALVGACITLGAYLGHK

SMILES | ASMS ratio (%) n = 1 [%] | ASMS ratio (%) n = 2 [%]
CCOc1cncc(-c2ccc(CN3CCN(c4ccc(C(=O)Nc5ccc(OC)cc5)cc4)CC3)cc2C)c1 [B1O048-01, 4-[4-[[4-(5-Ethoxypyridin-3-yl)-3-methylphenyl]methyl]piperazin-1-yl]-N-(4-methoxyphenyl)benzamide] | −0.3 | −1.6
CCOc1cncc(-c2ccc(CN3CCN(c4ccc(C(=O)Nc5ccc(OC)cc5)cc4)CC3)c(CC)c2)c1 [B1O050-01] | 10.3 | −5.8
CCOc1cncc(-c2ccc(CN3CCN(c4ccc(C(=O)Nc5ccc(OC)cc5)cc4)CC3)cc2F)c1 [B1O052-01, 4-[4-[[4-(5-Ethoxypyridin-3-yl)-3-fluorophenyl]methyl]piperazin-1-yl]-N-(4-methoxyphenyl)benzamide] | 1.6 | 0.4
CCOc1cncc(-c2ccc(CN3CCN(c4ccc(C(=O)Nc5ccc(OC)cc5)cc4)CC3)c(OC)c2)c1 [B1O054-01, 4-[4-[[4-(5-Ethoxypyridin-3-yl)-2-methoxyphenyl]methyl]piperazin-1-yl]-N-(4-methoxyphenyl)benzamide] | 2.6 | 3.2
CCOc1cccc(-c2cc(CN3CCN(c4ccc(C(=O)Nc5ccc(OC)cc5)cc4)CC3)cc(OCC)c2)c1 [B1O055-01] | 3.0 | −4.2
CCOc1cncc(-c2cc(CN3CCN(c4ccc(C(=O)Nc5ccc(OC)cc5)cc4)CC3)cc(OCC)c2)c1 [B1O056-01, 4-[4-[[3-Ethoxy-5-(5-ethoxypyridin-3-yl)phenyl]methyl]piperazin-1-yl]-N-(4-methoxyphenyl)benzamide] | 6.7 | −0.9
CCOc1cccc(-c2cc(CN3CCN(c4ccc(C(=O)Nc5ccc(OC)cc5)cc4)CC3)cc(OC(C)C)c2)c1 [B1O057-01, 4-[4-[[3-(3-Ethoxyphenyl)-5-propan-2-yloxyphenyl]methyl]piperazin-1-yl]-N-(4-methoxyphenyl)benzamide] | 4.1 | −2.2
CCOc1cncc(-c2cc(CN3CCN(c4ccc(C(=O)Nc5ccc(OC)cc5)cc4)CC3)cc(OC(C)C)c2)c1 [B1O058-01] | −3.5 | 4.4
CCOc1cccc(-c2cc(OC)c(CN3CCN(c4ccc(C(=O)Nc5ccc(OC)cc5)cc4)CC3)c(OC)c2)c1 [B1O059-01, 4-[4-[[4-(3-Ethoxyphenyl)-2,6-dimethoxyphenyl]methyl]piperazin-1-yl]-N-(4-methoxyphenyl)benzamide] | 2.0 | −1.9
CCOc1cncc(-c2cc(OC)c(CN3CCN(c4ccc(C(=O)Nc5ccc(OC)cc5)cc4)CC3)c(OC)c2)c1 [B1O060-01, 4-[4-[[4-(5-Ethoxypyridin-3-yl)-2,6-dimethoxyphenyl]methyl]piperazin-1-yl]-N-(4-methoxyphenyl)benzamide] | 0.6 | −1.8
CCOc1cccc(-c2cc(CN3CCN(c4ccc(C(=O)Nc5ccc(OC)cc5)cc4)CC3)cc(C(F)(F)F)c2)c1 [B1O061-01, 4-[4-[[3-(3-Ethoxyphenyl)-5-(trifluoromethyl)phenyl]methyl]piperazin-1-yl]-N-(4-methoxyphenyl)benzamide] | 1.9 | −1.5
CCOc1cncc(-c2cc(CN3CCN(c4ccc(C(=O)Nc5ccc(OC)cc5)cc4)CC3)cc(C(F)(F)F)c2)c1 [B1O062-01, 4-[4-[[3-(5-Ethoxypyridin-3-yl)-5-(trifluoromethyl)phenyl]methyl]piperazin-1-yl]-N-(4-methoxyphenyl)benzamide] | 1.3 | 4.6
CCOc1cccc(-c2cc(CN3CCN(c4ccc(C(=O)Nc5ccc(OC)cc5)cc4)CC3)cc(OC(F)(F)F)c2)c1 [B1O063-01, 4-[4-[[3-(3-Ethoxyphenyl)-5-(trifluoromethoxy)phenyl]methyl]piperazin-1-yl]-N-(4-methoxyphenyl)benzamide] | 3.5 | −4.1
CCOc1cncc(-c2cc(CN3CCN(c4ccc(C(=O)Nc5ccc(OC)cc5)cc4)CC3)cc(OC(F)(F)F)c2)c1 [B1O064-01, 4-[4-[[3-(5-Ethoxypyridin-3-yl)-5-(trifluoromethoxy)phenyl]methyl]piperazin-1-yl]-N-(4-methoxyphenyl)benzamide] | 0.7 | −4.0
CCOc1cccc(-c2csc(CN3CCN(c4ccc(C(=O)Nc5ccc(OC)cc5)cc4)CC3)c2)c1 [B1O067-01] | 0.0 | 0.0

More lines, now with the values ahead:

ASMS ratio (%) n = 1 [%] | ASMS ratio (%) n = 2 [%] | SMILES
0.0 | 0.0 | CCOc1cccc(-c2ccccc2CN2CCN(c3ccc(C(=O)Nc4ccc(OC)cc4)cc3)CC2)c1 [B1O045-01, 4-[4-[[2-(3-Ethoxyphenyl)phenyl]methyl]piperazin-1-yl]-N-(4-methoxyphenyl)benzamide]
0.6 | 1.3 | CCOc1cncc(-c2ccccc2CN2CCN(c3ccc(C(=O)Nc4ccc(OC)cc4)cc3)CC2)c1 [B1O046-01, 4-[4-[[2-(5-Ethoxypyridin-3-yl)phenyl]methyl]piperazin-1-yl]-N-(4-methoxyphenyl)benzamide]
4.1 | 1.5 | CCOc1cccc(-c2ccc(CN3CCN(c4ccc(C(=O)Nc5ccc(OC)cc5)cc4)CC3)cc2C)c1 [B1O047-01, 4-[4-[[4-(3-Ethoxyphenyl)-3-methylphenyl]methyl]piperazin-1-yl]-N-(4-methoxyphenyl)benzamide]
6.1 | 0.0 | CCOc1cccc(-c2ccc(CN3CCN(c4ccc(C(=O)Nc5ccc(OC)cc5)cc4)CC3)c(CC)c2)c1 [B1O049-01, 4-[4-[[4-(3-Ethoxyphenyl)-2-ethylphenyl]methyl]piperazin-1-yl]-N-(4-methoxyphenyl)benzamide]
3.9 | −1.9 | CCOc1cccc(-c2ccc(CN3CCN(c4ccc(C(=O)Nc5ccc(OC)cc5)cc4)CC3)cc2F)c1 [B1O051-01, 4-[4-[[4-(3-Ethoxyphenyl)-3-fluorophenyl]methyl]piperazin-1-yl]-N-(4-methoxyphenyl)benzamide]
2.2 | −1.0 | CCOc1cccc(-c2ccc(CN3CCN(c4ccc(C(=O)Nc5ccc(OC)cc5)cc4)CC3)c(OC)c2)c1 [B1O053-01, 4-[4-[[4-(3-Ethoxyphenyl)-2-methoxyphenyl]methyl]piperazin-1-yl]-N-(4-methoxyphenyl)benzamide]
7.5 | 0.8 | CCOc1cccc(-c2ccc(CN3CCN(c4ccc(C(=O)Nc5ccc(OC)cc5)cc4)CC3)c3ccccc23)c1 [B1O065-01, 4-[4-[[4-(3-Ethoxyphenyl)naphthalen-1-yl]methyl]piperazin-1-yl]-N-(4-methoxyphenyl)benzamide]
12.1 | 2.7 | CCOc1cncc(-c2ccc(CN3CCN(c4ccc(C(=O)Nc5ccc(OC)cc5)cc4)CC3)c3ccccc23)c1 [B1O066-01, 4-[4-[[4-(5-Ethoxypyridin-3-yl)naphthalen-1-yl]methyl]piperazin-1-yl]-N-(4-methoxyphenyl)benzamide]
